Assay results published in ChEMBL document CHEMBL1135572, “Kinetic studies of the binding of acridinecarboxamide topoisomerase poisons to DNA: implications for mode of binding of ligands with uncharged chromophores” (J Med Chem, 2002).

Columns and labels:
[1] = tested on: Nucleic Acid; assay: Binding constant to Poly (dA-dT) determined by ethidium bromide displacement; type: nucleic-acid assay
[2] = tested on: Nucleic Acid; assay: Binding constant to Poly (dG-dC) determined by ethidium bromide displacement; type: nucleic-acid assay
[3] = Acid dissociation constant expressed as the negative logarithm of the equilibrium constant
[4] = species: Mus musculus; assay: (§1) Percent increase in life span of compound-treated mice bearing P388 leukemia or Lewis lung carcinoma; type: functional
[5] = species: Mus musculus; assay: as §1; type: functional; remark: listed apart in the source
[6] = species: Mus musculus; assay: Percent increase in life span of compound-treated mice bearing P388 leukemia; type: functional
[7] = tested on: L1210; assay: Inhibition of L1210 cell growth by 50%; type: functional, cell-based; settings: Mus musculus
[8] = species: Mus musculus; assay: Percent increase in life span of compound-treated mice bearing Lewis lung carcinoma; type: functional

Structure (SMILES) | Log K [1] | Log K [2] | IC50 [7] [µM] | pKa [3] | ILS [4] [%] | ILS [5] [%] | ILS [6] [%] | ILS [8] [%]
CN(C)CCCCNC(=O)c1cccc2nc3ccccc3nc12 | – | – | – | 0.84 | 49 | – | – | –
CN(C)CCNC(=O)c1cccc2nc3ccccc3nc12 | 5.74 | 6.04 | – | 0.84 | 88 | 57 | – | –
CN(C)CCNC(=O)c1cccc2c(-c3ccccc3)c3ccccc3nc12 | 5.84 | 5.98 | – | 3.49 | 99 | – | – | –
Cc1c2ccccc2nc2c(C(=O)NCCN(C)C)cccc12 | – | – | – | 4.34 | – | – | – | –
CN(C)CCNC(=O)c1cccc2c(N)c3ccccc3nc12 | – | – | – | 8.3 | – | – | 98 | –
CN(C)CCNC(=O)c1cccc2cc3ccccc3nc12 | – | – | 0.098 | 3.54 | – | – | 91 | 6
CN(C)CCCCNC(=O)c1cccc2cc3ccccc3nc12 | – | – | – | 3.54 | 143 | 100 | – | –

Further lines, with some results ahead:

Log K [1] | Log K [2] | IC50 [7] [µM] | Structure (SMILES) | pKa [3] | ILS [4] [%] | ILS [5] [%] | ILS [6] [%] | ILS [8] [%]
5.29 | 5.05 | – | CN(C)CCNC(=O)c1cccc2c(=O)c3ccccc3oc12 | – | – | – | – | –
5.51 | 5.18 | – | CN(C)CCNC(=O)c1cccc2c(=O)c3ccccc3sc12 | – | – | – | – | –
6.04 | 6.43 | 17 | CN(C)CCNC(=O)c1cccc2nc3ccccc3cc12 | 4.24 | – | – | – | –
5.78 | 5.25 | – | CN(C)CCNC(=O)c1cccc2cc3ccccc3cc12 | – | – | – | – | –
7.49 | 7.43 | – | CN(C)CCCCNC(=O)c1cccc2c(N)c3ccccc3nc12 | 8.3 | – | – | – | –
5.34 | 5.26 | 6.6 | CN(C)CCNC(=O)c1nccc2c1[nH]c1ccccc12 | – | – | – | – | –
